Results on one compound are retold here after article PMC5082894 (PLoS ONE, 2016).

Bounds are passed on as bounds.

For orientation: EC50 means the concentration that produces a half-maximal response. A lower EC50 goes with a more potent agent. Broadly, the CC50 is the concentration that lowers cell viability or growth by half.

Data set [1] concerns HIV-1 LAI. The data set is described as follows: MAGI assay, HIV-1 LAI. The data set is classed as cell-based. The note with it: MAGI cells, 48 h, mean of triplicate ± SD. The protocol: (§1) Briefly, target cells (HeLa CD4/CCR5-LTR/β-gal; 10^4/well) were plated in 96-well flat microtiter culture plates. […] The test drugs were added initially and viruses were immediately inoculated onto the cells. Forty-eight hours after viral exposure, all blue cells in each well were counted. The cytotoxicity of the compound was determined by the MTT method as previously described. All experiments were performed in triplicate and AZT was used as reference anti-HIV-1 molecule.

Data set [2] concerns HIV-1 96USHIPS4 (B-X4/R5). As to the kind of experiment: PBMC antiviral assay (RT activity), HIV-1 96USHIPS4. The data set is classed as cell-based. The note with it: PHA-P-activated PBMCs, 125 TCID50, day 7, RT activity. How it is done:
(§2) In order to confirm antiretroviral activity of the compounds, using a cell model closer to the pathophysiology, Peripheral Blood Mononuclear Cells (PBMCs) were separated from a buffy-coat from healthy HIV-, HCV-, HBV-seronegative blood donors by Ficoll-Hypaque density gradient centrifugation. The PBMCs were activated by incubation with 1 μg/ml phytohemagglutinin-P (PHA-P; Difco Laboratories) for three days in RPMI 1640 medium supplemented with 10% heat-inactivated fetal calf serum (FCS, +56 ◦C for 45 min), 2mM l-glutamine and a 1% antibiotic cocktail (penicillin, streptomycin, neomycin). After this mitogen activation, PBMCs were cultivated in the same culture medium supplemented with recombinant human interleukin-2 (rHuIL-2; 20 IU/mL) and treated and/or infected. […] All these viruses were amplified in vitro with PHA-P-activated blood mononuclear cells and 50% tissue culture infectious doses (TCID50) were calculated using Kärber’s formula [37], after limited-dilution titration. […] Viral replication was measured by quantifying reverse transcriptase (RT) activity in the cell culture supernatants using the Lenti RT Activity Kit (Cavidi) and AZT was used as reference anti-HIV-1 molecule. EC50 were then calculated and expressed in μM.

The subject of data set [3] is HIV-1 92UG029 (A-X4). The data set is described as follows: PBMC antiviral assay (RT activity), HIV-1 92UG029. It is filed as cell-based. The conditions noted are these: PHA-P-activated PBMCs, 125 TCID50, day 7, RT activity. How it is done:
as §2

The subject of data set [4] is HIV-1 98IN017 (C-X4). The data set is described as follows: PBMC antiviral assay (RT activity), HIV-1 98IN017. It is filed as cell-based. The conditions noted are these: PHA-P-activated PBMCs, 125 TCID50, day 7, RT activity. How it is done:
as §2

The subject of data set [5] is HIV-1 LAI (B-X4). The data set is described as follows: PBMC antiviral assay (RT activity), HIV-1 LAI. The conditions noted are these: PHA-P-activated PBMCs, 125 TCID50, day 7, RT activity. It is filed as cell-based. How it is done:
as §2

Data set [6] deals with HIV-1 92HT599 (B-X4). The data set is described as follows: PBMC antiviral assay (RT activity), HIV-1 92HT599. The conditions noted are these: PHA-P-activated PBMCs, 125 TCID50, day 7, RT activity. It is filed as cell-based. The protocol:
as §2

Data set [7] concerns HIV-1 NL4-3. The data set is described as follows: MAGI assay, HIV-1 NL4-3. The data set is classed as cell-based. The note with it: MAGI cells, 48 h, mean of triplicate ± SD. How it is done:
as §1

Data set [8] relates to PBMCs. The data set is described as follows: Cytotoxicity in PBMCs. The conditions noted are these: PBMCs. It is filed as cell-based, human.
Data set [9] deals with HIV-1 Ba-L (B-R5). The data set is described as follows: PBMC antiviral assay (RT activity), HIV-1 Ba-L. The data set is classed as cell-based. The note with it: PHA-P-activated PBMCs, 125 TCID50, day 7, RT activity. How it is done:
as §2

The test system of data set [10] is HeLa CD4/CCR5-LTR/β-gal cells. As to the kind of experiment: Cytotoxicity by MTT method (MAGI cells). It is filed as cell-based. The conditions noted are these: MTT, mean of triplicate ± SD. How it is done: as §1
Background: Tetrazolium dyes change colour on reduction, which living cells bring about.

In the case of `Cc1cn([C@H]2C[C@H](N=[N+]=[N-])[C@@H](CO)O2)c(=O)[nH]c1=O` [AZT, reference compound], the EC50 in data set [1] was 12 ± 8 nM; in data set [2] it was 18 ± 10 nM; in data set [3], 9 ± 4 nM; in data set [4] it was 6 ± 2 nM; in data set [5], 12 ± 3 nM; in data set [6] it was 12 ± 2 nM. The EC50 is 21 ± 11 nM in data set [7] and 15 ± 21 nM in data set [9]. In addition, the CC50 is above 1000 nM in data set [8] and above 100000 nM in data set [10].
